Seven molecules from publication PMC6199744, “Development of Chemical Proteomics for the Folateome and Analysis of the Kinetoplastid Folateome” (ACS Infectious Diseases, 2018) can be followed below.

Like-named read-outs stand apart in the source and are kept apart here.

In assay [1] the test system is IRON/ASCORBATE OXIDOREDUCTASE FAMILY PROTEIN, PUTA (Tb427.02.6180). In words: Multitargeted bead mixture competition. The class given is binding, T. brucei. The note with it: for fold change: PUTATIVE
Assay [2] deals with T. brucei lysate proteins (Trypanosoma brucei brucei, UniProt P23799). The class given is binding. The following applies: for fold change - vehicle control: protein PUTATIVE ADENYLATE CYCLASE […] (ESAG8) (CZT00028390.1).
In another assay the target is DHFR-TS (Leishmania major, UniProt P07382). The class given is binding. The note with it: for fold change: LMJF.06.0860 DIH[…]-T[…], vehicle control = 1.
Assay [3] has as its system dynein associated protein (Tb09.211.4920). Nature of the assay: Multitargeted bead mixture competition. In kind it is binding, T. brucei. The following applies: for fold change - vehicle control / fold change: protein TB09.211.4920 DYNEIN-ASSOCIATED PROTEIN, PUTATIVE; for fold change: vehicle control = 1.
The subject of assay [4] is glutamate 5′-kinase (LmjF.26.2710). In words: Multitargeted bead mixture competition. The class given is binding, Leishmania. The following applies: for fold change / fold change vs vehicle control: protein LMJF.26.2710 GLUTAMATE 5-KINASE, PUTATIVE; for fold change: vehicle control = 1.
The next assay has as its target T1, TS (Homo sapiens, UniProt P04818).
T1 construct: endogenous in cells; host or cells: HeLa cell extract
In words: Multitargeted bead mixture competition, HeLa cell extract. In kind it is binding.

The target of a further assay is T2, PTR1 (Leishmania major, UniProt Q01782).
T2 sequence (Q01782 1-288): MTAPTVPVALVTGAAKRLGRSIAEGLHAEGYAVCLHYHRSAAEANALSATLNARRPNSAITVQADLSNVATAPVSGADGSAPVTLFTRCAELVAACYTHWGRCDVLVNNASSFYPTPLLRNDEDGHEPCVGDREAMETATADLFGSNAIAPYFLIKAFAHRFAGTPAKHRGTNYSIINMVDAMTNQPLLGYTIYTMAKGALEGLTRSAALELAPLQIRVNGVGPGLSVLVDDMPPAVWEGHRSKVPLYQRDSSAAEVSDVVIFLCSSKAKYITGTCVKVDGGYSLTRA
The class given is binding. Set-up: endogenous in cells; host or cells: L. major Friedlin promastigote lysate.

Where [5] appears, read: relative to vehicle control = 1, protein TB427.02.6180 IRON/ASCORBATE OXIDOREDUCTASE FAMILY PROTEIN.
[6] abbreviates: LMJF.23.0270 PTERIDINE REDUCTASE 1, vehicle control = 1.
Setting [7] is: protein TB427.02.6180 IRON/ASCORBATE OXIDOREDUCTASE FAMILY PROTEIN, vehicle control = 1.
The mark [8] stands for this setting: protein CZT00028390.1 PUTATIVE ADENYLATE CYCLASE […] (ESAG8), vehicle control = 1.
[9] abbreviates: protein LMJF.06.0860, DIH[…]-T[…].
The mark [10] stands for this setting: vs vehicle control, protein LMJF.23.0270 PTERIDINE REDUCTASE 1.
The mark [11] stands for this setting: protein TB427.02.6180 IRON/ASCORBATE OXID[…] PROTEIN, vehicle control = 1.

Chain of T. brucei lysate proteins (P23799 whole entry): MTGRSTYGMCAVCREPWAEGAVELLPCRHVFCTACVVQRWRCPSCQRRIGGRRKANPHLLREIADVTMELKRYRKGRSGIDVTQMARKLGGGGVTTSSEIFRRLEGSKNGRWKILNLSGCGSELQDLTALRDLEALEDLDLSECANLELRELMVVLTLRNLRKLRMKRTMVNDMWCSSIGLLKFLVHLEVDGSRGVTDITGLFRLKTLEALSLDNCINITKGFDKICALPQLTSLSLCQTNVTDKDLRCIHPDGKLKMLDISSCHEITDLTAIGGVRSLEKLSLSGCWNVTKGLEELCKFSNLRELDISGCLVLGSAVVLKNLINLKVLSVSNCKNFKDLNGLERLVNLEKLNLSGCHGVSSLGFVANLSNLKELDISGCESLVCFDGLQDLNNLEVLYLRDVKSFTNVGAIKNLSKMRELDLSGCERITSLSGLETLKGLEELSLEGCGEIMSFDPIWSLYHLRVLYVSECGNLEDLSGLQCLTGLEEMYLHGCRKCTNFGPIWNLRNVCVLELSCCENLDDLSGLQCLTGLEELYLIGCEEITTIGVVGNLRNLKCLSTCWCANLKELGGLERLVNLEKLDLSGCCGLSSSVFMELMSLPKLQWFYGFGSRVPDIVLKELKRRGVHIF
Chain of DHFR-TS (P07382 whole entry): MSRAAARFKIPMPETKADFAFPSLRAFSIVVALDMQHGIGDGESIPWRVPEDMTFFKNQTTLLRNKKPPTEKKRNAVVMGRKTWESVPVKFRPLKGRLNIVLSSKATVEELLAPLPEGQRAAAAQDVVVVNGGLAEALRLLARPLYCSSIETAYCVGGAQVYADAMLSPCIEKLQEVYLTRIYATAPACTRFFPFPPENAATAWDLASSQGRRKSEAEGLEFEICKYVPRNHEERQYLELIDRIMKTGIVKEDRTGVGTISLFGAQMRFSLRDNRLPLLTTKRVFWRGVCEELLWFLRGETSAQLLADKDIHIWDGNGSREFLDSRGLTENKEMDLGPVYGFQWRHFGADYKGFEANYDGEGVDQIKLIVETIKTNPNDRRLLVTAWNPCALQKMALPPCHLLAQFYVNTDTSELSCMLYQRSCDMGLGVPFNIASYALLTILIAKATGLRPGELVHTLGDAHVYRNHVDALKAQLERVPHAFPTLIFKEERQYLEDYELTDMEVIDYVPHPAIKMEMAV
T1 sequence (P04818 whole entry): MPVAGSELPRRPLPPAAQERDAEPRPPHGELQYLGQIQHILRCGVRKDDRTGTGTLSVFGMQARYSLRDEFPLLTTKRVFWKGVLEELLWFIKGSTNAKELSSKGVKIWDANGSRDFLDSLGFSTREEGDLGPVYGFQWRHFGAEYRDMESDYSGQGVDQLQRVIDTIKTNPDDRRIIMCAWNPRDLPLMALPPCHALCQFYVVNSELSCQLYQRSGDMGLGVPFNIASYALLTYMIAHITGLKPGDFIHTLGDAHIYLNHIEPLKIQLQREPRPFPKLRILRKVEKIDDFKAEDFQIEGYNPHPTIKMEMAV

As to `CCCCCCOc1cccc(Cc2cnc(N)nc2N)c1` [compound 2], the fold change turned out to be 0.92 in assay [1] (setting [5]), 0.99 at DHFR-TS, 1.07 in assay [4] and 1.13 on PTR1 (setting [6]). Further, the “fold change - vehicle control” value in assay [2] was 0.97; in assay [3], 0.91. On TS (captured protein TYMS, HeLa), the “fold changes relative to vehicle control” value is given as 1.31.

Take `NCCOCCOCC(=O)Nc1nc2ncc(CNc3ccc(C(=O)NC(CCC(=O)O)C(=O)O)cc3)nc2c(=O)[nH]1` (centres unmarked) [compound 6]: the fold change in assay [1] (setting [7]) is recorded as 0.28; in assay [3], 0.86; on PTR1 (setting [10]), 0.98. In addition, the “fold change vs vehicle control” value is on record as 1.1 in assay [2] (setting [8]) and 1.06 in assay [4]. On DHFR-TS (setting [9]), the “fold change relative to vehicle control” value turned out to be 1.19. At TS (protein TYMS, HeLa), the “fold changes relative to vehicle control” value was 0.55.

As to `CCCCCCOc1ccc(Cc2cnc(N)nc2N)cc1` [compound 1], the fold change is recorded as 0.85 in assay [1] (setting [5]), 0.17 on DHFR-TS, 1.07 in assay [4] and 1.1 at PTR1 (setting [6]). The “fold change - vehicle control” value in assay [2] was 1.15; in assay [3], 0.67. Further, the “competition for DHFR-TS (Figure 8a)” value on DHFR-TS (bead mixture, L. major lysate) is “competed for DHFR-TS”. The “fold changes relative to vehicle control” value on TS (captured protein TYMS, HeLa) is on record as 0.76.

With `Nc1nc2c(c(=O)[nH]1)N(C=O)C(CNc1ccc(C(=O)N[C@@H](CCC(=O)O)C(=O)O)cc1)CN2` (some centres unmarked) [LEU, leucovorin], the fold change in assay [1] (setting [7]) is 0.92; in assay [3], 0.78; on PTR1 (setting [10]) it was 1.04. In addition, the “fold change vs vehicle control” value is given as 1.17 in assay [2] (setting [8]) and 1.15 in assay [4]. Further, at DHFR-TS (setting [9]), the “fold change relative to vehicle control” value was 1.39. For the same molecule, the “inhibition, TS” value on TS (bead mixture, HeLa cell extract) was > 56%. In addition, on TS (protein TYMS, HeLa), the “fold changes relative to vehicle control” value was found to be 0.44.

As for `NCCCNc1ccc(C(=O)NC(CCC(=O)O)C(=O)O)cc1` (centres unmarked) [compound 7], the values for the fold change (in assay [1] (setting [11]); in assay [3]; at PTR1 (setting [10])) were 1.02, 0.68 and 1.02, respectively. In addition, the entries for the “fold change vs vehicle control” value in assay [2] (setting [8]) and in assay [4] were 0.95 and 1, respectively. Besides, the “fold change relative to vehicle control” value at DHFR-TS (setting [9]) turned out to be 1.02. For the same molecule, the “fold changes relative to vehicle control” value on TS (protein TYMS, HeLa) is listed as 1.04.

As for `Nc1nc2[nH]cc(CCc3ccc(C(=O)N[C@@H](CCC(=O)O)C(=O)O)cc3)c2c(=O)[nH]1` [PTX, pemetrexed], the figures for the fold change (in assay [1] (setting [11]); in assay [3]; at PTR1) were 0.95, 0.9 and 0.52, respectively. Besides, the “fold change vs vehicle control” value in assay [2] came to 1.01; in assay [4] it was 0.14. The “fold change relative to vehicle control” value on DHFR-TS is 1.08. The “binding to dynein associated protein (Tb09.211.4920)” value in assay [3] (bead mixture, T. brucei lysates) is recorded as “bound specifically”. Further, the “association with glutamate 5′-kinase (LmjF.26.2710)” value in assay [4] (bead mixture, Leishmania lysates) is “strongly associated”. Besides, the “fold changes relative to vehicle control” value at TS was 0.34. The “inhibition, TS” value on TS was > 56%.

Consider `Nc1nc2cccc(-c3ccccc3)c2n1Cc1ccc(Cl)c(Cl)c1` [compound 3], for which the “percentage of competition from bead binding” value in assay [1] (multitargeted bead mixture, free ligand 100 μM, T. brucei lysate, Tb427.02.6180) is on record as 0%. Also, the fold change in assay [1] (relative to vehicle control = 1, protein TB427.02.6180 IRON/ASCORBATE OXID[…] PROTEIN) was determined as 0.9; at DHFR-TS, 1.11; in assay [4], 1.05; on PTR1 (setting [6]), 0.99. For the same molecule, the figures for the “fold change - vehicle control” value in assay [2] and in assay [3] were 0.98 and 0.96, respectively. The “fold changes relative to vehicle control” value on TS (captured protein TYMS, HeLa) is 0.99. Further, the “competition for PTR1 (Figure 8a)” value at PTR1 (bead mixture, L. major lysate) is listed as “no inhibition of PTR1”.
